Assay results: ChEMBL document CHEMBL3822440, “Semi-synthesis and antiproliferative evaluation of PEGylated pentacyclic triterpenes” (Eur J Med Chem, 2016)
pIC50: −log10 of the molar value.

What was measured:
HT-29 [1] = assay: Disruption of mitochondrial membrane potential in human HT-29 cells assessed as rhodamine123 positive cells at cytotoxic IC50 after 72 hrs by propidium iodide staining based fluorescence spectroscopic analysis (reference value: 94.25 +/- 0.35%); format: functional
HepG2 [2] = assay: Induction of apoptosis in human HepG2 cells assessed as early apoptotic cells at cytotoxic IC50 after 72 hrs by Annexin V-FITC/propidium iodide staining based flow cytometry (reference value: 0.3 +/- 0.01%); format: functional
HT-29 [3] = assay: Disruption of mitochondrial membrane potential in human HT-29 cells assessed as rhodamine123 negative cells at cytotoxic IC50 after 72 hrs by propidium iodide staining based fluorescence spectroscopic analysis (reference value: 5.8 +/- 0.42%); format: functional
HepG2 [4] = assay: Cytotoxicity against human HepG2 cells assessed as growth inhibition after 72 hrs by MTT assay; format: functional, cell-based; settings: HepG2, 72 h
B16-F10 [5] = assay: Potency index, ratio of oleanolic acid IC50 to compound IC50 for mouse B16F10 cells; format: functional
[6] = Induction of apoptosis in mouse B16F10 cells assessed as live cells at cytotoxic IC50 after 72 hrs by Annexin V-FITC/propidium iodide staining based flow cytometry (reference value: 97.55 +/- 0.5%); format: functional, B16-F10
[7] = Cell cycle arrest in mouse B16F10 cells assessed as accumulation at G2/M phase at cytotoxic IC50 after 72 hrs by propidium iodide staining based flow cytometry (reference value: 1.01 +/- 0.13%); format: functional, B16-F10
HT-29 [8] = assay: Induction of apoptosis in human HT-29 cells assessed as necrotic cells at cytotoxic IC50 after 72 hrs by Annexin V-FITC/propidium iodide staining based flow cytometry (reference value: 1.05 +/- 0.35%); format: functional
HT-29 [9] = assay: Cell cycle arrest in human HT-29 cells assessed as accumulation at S phase at cytotoxic IC50 after 72 hrs by propidium iodide staining based flow cytometry (reference value: 48.31 +/- 1.49%); format: functional
HT-29 [10] = assay: Potency index, ratio of oleanolic acid IC50 to compound IC50 for human HT-29 cells; format: functional
[11] = Disruption of mitochondrial membrane potential in mouse B16F10 cells assessed as rhodamine123 positive cells at cytotoxic IC50 after 72 hrs by propidium iodide staining based fluorescence spectroscopic analysis (reference value: 95.6 +/- 0.57%); format: functional, B16-F10
HepG2 [12] = assay: Induction of apoptosis in human HepG2 cells assessed as late apoptotic cells at cytotoxic IC50 after 72 hrs by Annexin V-FITC/propidium iodide staining based flow cytometry relative to control; format: functional
HT-29 [13] = assay: Cell cycle arrest in human HT-29 cells assessed as accumulation at G2/M phase at cytotoxic IC50 after 72 hrs by propidium iodide staining based flow cytometry (reference value: 6.23 +/- 1.7%); format: functional
HepG2 [14] = assay: Cell cycle arrest in human HepG2 cells assessed as accumulation at G2/M phase at cytotoxic IC50 after 72 hrs by propidium iodide staining based flow cytometry (reference value: 8.47 +/- 2.55%); format: functional
[15] = Induction of apoptosis in mouse B16F10 cells assessed as early apoptotic cells at cytotoxic IC50 after 72 hrs by Annexin V-FITC/propidium iodide staining based flow cytometry (reference value: 0.75 +/- 0.07%); format: functional, B16-F10
HepG2 [16] = assay: Disruption of mitochondrial membrane potential in human HepG2 cells assessed as rhodamine123 positive cells at cytotoxic IC50 after 72 hrs by propidium iodide staining based fluorescence spectroscopic analysis (reference value: 88.3 +/- 8.87%); format: functional
HepG2 [17] = assay: Disruption of mitochondrial membrane potential in human HepG2 cells assessed as rhodamine123 negative cells at cytotoxic IC50 after 72 hrs by propidium iodide staining based fluorescence spectroscopic analysis (reference value: 11.7 +/- 6.8%); format: functional
HT-29 [18] = assay: Induction of apoptosis in human HT-29 cells assessed as late apoptotic cells at cytotoxic IC50 after 72 hrs by Annexin V-FITC/propidium iodide staining based flow cytometry (reference value: 0.65 +/- 0.35%); format: functional
HT-29 [19] = assay: Cell cycle arrest in human HT-29 cells assessed as accumulation at G0/G1 phase at cytotoxic IC50 after 72 hrs by propidium iodide staining based flow cytometry (reference value: 55.18 +/- 0.22%); format: functional
[20] = Cytotoxicity against mouse B16F10 cells assessed as growth inhibition after 72 hrs by MTT assay; format: functional, cell-based; settings: B16-F10, 72 h
HepG2 [21] = assay: Potency index, ratio of oleanolic acid IC50 to compound IC50 for human HepG2 cells; format: functional
HepG2 [22] = assay: Induction of apoptosis in human HepG2 cells assessed as live cells at cytotoxic IC50 after 72 hrs by Annexin V-FITC/propidium iodide staining based flow cytometry (reference value: 99.55 +/- 0.07%); format: functional
[23] = Cell cycle arrest in mouse B16F10 cells assessed as accumulation at G0/G1 phase at cytotoxic IC50 after 72 hrs by propidium iodide staining based flow cytometry (reference value: 50.69 +/- 0.61%); format: functional, B16-F10
[24] = Cell cycle arrest in mouse B16F10 cells assessed as accumulation at S phase at cytotoxic IC50 after 72 hrs by propidium iodide staining based flow cytometry (reference value: 48.31 +/- 0.74%); format: functional, B16-F10
HepG2 [25] = assay: Induction of apoptosis in human HepG2 cells assessed as necrotic cells at cytotoxic IC50 after 72 hrs by Annexin V-FITC/propidium iodide staining based flow cytometry (reference value: 0.1 +/- 0.01%); format: functional
HepG2 [26] = assay: Cell cycle arrest in human HepG2 cells assessed as accumulation at S phase at cytotoxic IC50 after 72 hrs by propidium iodide staining based flow cytometry (reference value: 54.71 +/- 2.37%); format: functional
[27] = Induction of apoptosis in mouse B16F10 cells assessed as necrotic cells at cytotoxic IC50 after 72 hrs by Annexin V-FITC/propidium iodide staining based flow cytometry (reference value: 0.75 +/- 0.07%); format: functional, B16-F10
HepG2 [28] = assay: Cell cycle arrest in human HepG2 cells assessed as accumulation at G0/G1 phase at cytotoxic IC50 after 72 hrs by propidium iodide staining based flow cytometry (reference value: 39.41 +/- 1.56%); format: functional
HT-29 [29] = assay: Cytotoxicity against human HT-29 cells assessed as growth inhibition after 72 hrs by MTT assay; format: functional, cell-based; settings: HT-29, 72 h
[30] = Disruption of mitochondrial membrane potential in mouse B16F10 cells assessed as rhodamine123 negative cells at cytotoxic IC50 after 72 hrs by propidium iodide staining based fluorescence spectroscopic analysis (reference value: 4.45 +/- 0.64%); format: functional, B16-F10
HT-29 [31] = assay: Induction of apoptosis in human HT-29 cells assessed as live cells at cytotoxic IC50 after 72 hrs by Annexin V-FITC/propidium iodide staining based flow cytometry (reference value: 96.65 +/- 0.78%); format: functional
[32] = Induction of apoptosis in mouse B16F10 cells assessed as late apoptotic cells at cytotoxic IC50 after 72 hrs by Annexin V-FITC/propidium iodide staining based flow cytometry (reference value: 0.75 +/- 0.21%); format: functional, B16-F10
HT-29 [33] = assay: Induction of apoptosis in human HT-29 cells assessed as early apoptotic cells at cytotoxic IC50 after 72 hrs by Annexin V-FITC/propidium iodide staining based flow cytometry (reference value: 1.65 +/- 0.07%); format: functional
HT-29 [34] = assay: Potency index, ratio of maslinic acid IC50 to compound IC50 for human HT-29 cells; format: functional
B16-F10 [35] = assay: Potency index, ratio of maslinic acid IC50 to compound IC50 for mouse B16F10 cells; format: functional
HepG2 [36] = assay: Potency index, ratio of maslinic acid IC50 to compound IC50 for human HepG2 cells; format: functional

CC1(C)CC[C@]2(C(=O)NCCCOCCOCCOCCCN)CC[C@]3(C)C(=CC[C@@H]4[C@@]5(C)CC[C@H](O)C(C)(C)[C@@H]5CC[C@]43C)[C@@H]2C1
Activity (HT-29 [1]): 23.75%
Activity (HepG2 [2]): 35.9%
Activity (HT-29 [3]): 76.3%
pIC50 (HepG2 [4]): 6.66
Ratio IC50 (B16-F10 [5]): 28.1
Activity [6]: 27.55%
Activity [7]: 4.78%
Activity (HT-29 [8]): 0.25%
Activity (HT-29 [9]): 4.78%
Ratio IC50 (HT-29 [10]): 120.1
Activity [11]: 20.75%
Activity (HepG2 [12]): 22.45%
Activity (HT-29 [13]): 8.12%
Activity (HepG2 [14]): 0.34%
Activity [15]: 59.65%
Activity (HepG2 [16]): 80.45%
Activity (HepG2 [17]): 19.6%
Activity (HT-29 [18]): 7.45%
Activity (HT-29 [19]): 87.11%
pIC50 [20]: 5.42
Ratio IC50 (HepG2 [21]): 962.7
Activity (HepG2 [22]): 41.35%
Activity [23]: 63.89%
Activity [24]: 31.33%
Activity (HepG2 [25]): 0.35%
Activity (HepG2 [26]): 46.97%
Activity [27]: 0%
Activity (HepG2 [28]): 52.7%
pIC50 (HT-29 [29]): 5.45
Activity [30]: 79.3%
Activity (HT-29 [31]): 72.45%
Activity [32]: 12.85%
Activity (HT-29 [33]): 19.7%

COCCOCCOCC(=O)O[C@@H]1C[C@]2(C)[C@H]3CC=C4[C@@H]5CC(C)(C)CC[C@]5(C(=O)OCc5ccccc5)CC[C@@]4(C)[C@]3(C)CC[C@H]2C(C)(C)[C@H]1OC(=O)COCCOCCOC
Activity (HT-29 [1]): 3.15%
Activity (HepG2 [2]): 18.65%
Activity (HT-29 [3]): 96.9%
pIC50 (HepG2 [4]): 4.89
Activity [6]: 2.7%
Activity [7]: 3.85%
Activity (HT-29 [8]): 0.15%
Ratio IC50 (HT-29 [34]): 1
Activity (HT-29 [9]): 6.63%
Activity [11]: 81.35%
Ratio IC50 (B16-F10 [35]): 1.7
Activity (HepG2 [12]): 44.35%
Activity (HT-29 [13]): 1.51%
Activity (HepG2 [14]): 15.04%
Activity [15]: 29.6%
Activity (HepG2 [16]): 45.7%
Activity (HepG2 [17]): 54.25%
Ratio IC50 (HepG2 [36]): 7.8
Activity (HT-29 [18]): 6.7%
Activity (HT-29 [19]): 91.87%
pIC50 [20]: 4.68
Activity (HepG2 [22]): 37%
Activity [23]: 83.03%
Activity [24]: 13.13%
Activity (HepG2 [25]): 0%
Activity (HepG2 [26]): 19.76%
Activity [27]: 0.8%
Activity (HepG2 [28]): 65.2%
pIC50 (HT-29 [29]): 4.50
Activity [30]: 18.6%
Activity (HT-29 [31]): 48.95%
Activity [32]: 67.25%
Activity (HT-29 [33]): 43.95%

COCCOCCOCC(=O)O[C@H]1CC[C@]2(C)[C@H]3CC=C4[C@@H]5CC(C)(C)CC[C@]5(C(=O)O)CC[C@@]4(C)[C@]3(C)CC[C@H]2C1(C)C
Activity (HT-29 [1]): 88.65%
Activity (HepG2 [2]): 38.65%
Activity (HT-29 [3]): 11.35%
pIC50 (HepG2 [4]): 4.76
Ratio IC50 (B16-F10 [5]): 6.2
Activity [6]: 52.75%
Activity [7]: 0.28%
Activity (HT-29 [8]): 0%
Activity (HT-29 [9]): 49.98%
Ratio IC50 (HT-29 [10]): 31.9
Activity [11]: 79.45%
Activity (HepG2 [12]): 17.7%
Activity (HT-29 [13]): 0%
Activity (HepG2 [14]): 14.18%
Activity [15]: 6.8%
Activity (HepG2 [16]): 13.95%
Activity (HepG2 [17]): 86.05%
Activity (HT-29 [18]): 13.45%
Activity (HT-29 [19]): 63.47%
pIC50 [20]: 4.76
Ratio IC50 (HepG2 [21]): 12.1
Activity (HepG2 [22]): 43.5%
Activity [23]: 74.28%
Activity [24]: 25.44%
Activity (HepG2 [25]): 0.2%
Activity (HepG2 [26]): 45.44%
Activity [27]: 0.35%
Activity (HepG2 [28]): 38.88%
pIC50 (HT-29 [29]): 4.87
Activity [30]: 20.65%
Activity (HT-29 [31]): 51.85%
Activity [32]: 39.6%
Activity (HT-29 [33]): 34.7%
